Results as given in US11135181B2, “Treatment for depression and depressive disorders” (Medlab IP Pty Ltd, priority 2014, dated 2021).

Assays:
Format in all cases: in vivo, human
[1] = tested on: subjects diagnosed with depression; test: Outcome Questionnaire-45 (OQ45) in subjects with treatment-resistant depression; settings: n=8
Text: OQ45 is a self-report symptom and distress inventory designed as an independent measure of symptom distress and functioning to assess the response to intervention at regular intervals such as on a weekly bases (α=0.93, & κ>0.83). The OQ45 consists of 45 items with a five point scale. A high total score […] indicates a high level of symptom distress (anxiety, depression, and somatic, work and social role problems). Lower scores indicate less severity of problems. Average community non-clinical scores cut off (CO) occur at about >63, and changes of 14 points in either direction are typically considered clinically significant change and are reliable. […]
(§1) Depression was monitored in the treated subjects over the eight week course using a variety of well known methodologies: the Beck Depression Inventory (BDI); the Depression and Anxiety Stress Scale (DASS); Outcome Questionnaire-45 (OQ45); the Warwick-Edinburgh Mental Well-Being Scale (WBS); and a Quality of Life (QoL score).
(§2) Three subjects were administered a probiotic supplement containing magnesium orotate for eight weeks, and measures of depression (BDI and OQ45) assessed. […]
(§3) BDI and OQ45 were assessed for each subject as described in Example 1, at the beginning of the study prior to the initiation of treatment and again at the completion of eight weeks of combined magnesium orotate plus probiotic administration. […]

[2] = tested on: subjects diagnosed with depression; test: Beck Depression Inventory (BDI) in subjects with treatment-resistant depression
Text: BDI is a 21-item self-report inventory that is widely used to assess depression. It has high internal constancy and correlates highly with other self-report measures of depression (α=0.60−0.90).
(§4) The study received ethical approval from the Medical Research Ethics Committee (MREC) University of Queensland, Australia, within the guidelines of the National Statement on Ethical Conduct in Human Research. All participants provided written informed consent for the study.
The subjects were selected for inclusion in the study as follows. At the completion of a 15 week study investigating SAMe treatment of depression, suboptimal treatment responders (n=8) were inducted into the present orotate study after a 2 week wash out period. Sub-optimal treatment responders were defined as those still experiencing clinical depression by the SAMe study endpoint, which consisted of six participants with major depression and two with moderate depression. The subjects comprised six females between 33 to 70 years of age (mean age of 53 years) and two males between 48-54 years of age (mean age of 51 years). The orotate study was conducted as a single group study for 8 weeks (mean time for SAMe responders) with a focus was on efficacy. […]
as §1, §2, §3

[3] = tested on: subjects diagnosed with depression; test: Quality of Life (QoL) score in subjects with treatment-resistant depression
Text: QoL has 16 items and evaluates perceived satisfaction with life over a number of domains (α=0.85). QoL typically provides an important evaluation of perception of life circumstances and stressors.
as §4
(§5) The subjects were selected for inclusion in the study as follows. At the completion of a 15 week study investigating SAMe treatment of depression, suboptimal treatment responders (n=8) were inducted into the present orotate study after a 2 week wash out period. Sub-optimal treatment responders were defined as those still experiencing clinical depression by the SAMe study endpoint, which consisted of six participants with major depression and two with moderate depression. The subjects comprised six females between 33 to 70 years of age (mean age of 53 years) and two males between 48-54 years of age (mean age of 51 years). The orotate study was conducted as a single group study for 8 weeks (mean time for SAMe responders) with a focus was on efficacy.
(§6) Inclusion criteria also required a primary diagnosis of major depression that has a verifiable history of being treatment resistant, current medication type being SSRIs (for standardisation purposes), and at least 18 years of age with no upper age limit. Participants were also asked not to take any nutritional supplements such as B group vitamins or other supplements that have antidepressant effects (a list was provided to participants).
The magnesium orotate was administered in capsule form, each capsule comprising 400 mg magnesium orotate. […]
as §1

[4] = tested on: subjects diagnosed with depression; test: Clinical depression status at study endpoint; settings: 8 weeks, 1600 mg per day
Text: as §4, §5, §6
The magnesium orotate was administered in capsule form, each capsule comprising 400 mg magnesium orotate. The daily dose of 1600 mg magnesium orotate was provided as two capsules taken in the morning and two capsules taken at night.

[5] = tested on: subjects diagnosed with depression; test: Depression and Anxiety Stress Scale (DASS) in subjects with treatment-resistant depression
Text: The DASS short form is a 21 item self-report scale designed to measure depression and anxiety and was used here as a secondary self-report assessment. The DASS has high internal consistency and yields meaningful discriminations in a variety of settings (α=0.88-0.96).
as §4, §5
as §6, with “participants). […]” for “participants).”
as §1

[6] = tested on: subjects diagnosed with depression; test: Warwick-Edinburgh Mental Well-Being Scale (WBS) in subjects with treatment-resistant depression
Text: WBS has 14 items and assesses feelings and thoughts associated with mood (α=0.91) with higher scores indicate better mood. It has a different factor structure to the BDI and DASS and was used in this study as a measure of mood improvement.
as §4
The subjects were selected for inclusion in the study as follows. At the completion of a 15 week study investigating SAMe treatment of depression, suboptimal treatment responders (n=8) were inducted into the present orotate study after a 2 week wash out period. Sub-optimal treatment responders were defined as those still experiencing clinical depression by the SAMe study endpoint, which consisted of six participants with major depression and two with moderate depression. […]
as §1

[7] = after 8 weeks of 1600 mg per day oral capsules, n=8

magnesium orotate
OQ45 mean score, Post-Treatment ([1]; after 8 weeks of 1600 mg per day oral capsules): 54.2 | OQ45 mean score, Pre-Treatment ([1]; baseline before treatment): 86.6 | BDI change score (mean, pre- versus post treatment) ([2]; 8 weeks, 1600 mg per day, p=0.021): 19 | BDI mean score, Post-Treatment [2, 7]: 14.1 | BDI mean score, Pre-Treatment ([2]; baseline before treatment, n=8 SAMe suboptimal responders on SSRIs): 33.8 | QoL mean score, Post-Treatment [3, 7]: 76.0 | QoL mean score, Pre-Treatment ([3]; baseline before treatment, n=8): 55.2 | QoL paired difference, mean (QoL-QoL8) ([3]; baseline minus week 8, 1600 mg per day, Sig. (2-tailed) .027): −20.75 | share of the group in clinical remission by the endpoint [4]: 50% | share of the group mildly depressed [4]: 10% | share of the group that remained moderately depressed [4]: 30% | share of the group without any clinical change [4]: 10% | DASS mean score, Post-Treatment [5, 7]: 25.2 | DASS mean score, Pre-Treatment ([5]; baseline before treatment, n=8): 44.7 | DASS paired difference, mean (DASS-DASS8) ([5]; baseline minus week 8, 1600 mg per day, Sig. (2-tailed) .032): 19.5 | WBS mean score, Pre-Treatment ([6]; baseline before treatment, n=8, higher score = better mood): 34.6 | WBS paired difference, mean (MWBS-WMBS8) ([6]; baseline minus week 8, 1600 mg per day, Sig. (2-tailed) .025): −11
